Reference: patent publication US12281225B2, “Process for preparing stable polymers containing vinylimidazole” (BASF SE, priority 2018, dated 2025)

Experiments:
[1] = Iodine color number according to DIN 6162:2014-09; type: physicochemical
[2] = Analysis of active substance: preservative concentration before and after storage in VI-containing polymer solution; type: physicochemical; details: for active-substance concentration, 0 d, RT: before storage; for active-substance concentration, 14 d, 40° C.: storage 14 d at 40° C.; for active-substance concentration, 28 d, 40° C.: storage 28 d at 40° C.; for active-substance concentration, 60 d 40° C.: storage 60 d at 40° C.
Method in brief: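 Preservatives (MIT, BIT, CMIT, OIT, DCOIT, iodopropynyl butyl carbamate) in aqueous vinylpyrrolidone–vinylimidazole copolymer solution quantified after dilution by isocratic RP18 chromatography with UV detection, using an acid-methanol eluent.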

[3] = test system: Bacteria: Escherichia coli, Staphylococcus aureus, Pseudomonas aeruginosa, Pseudomonas putida, Burkholderia cepacia, Alcaligenes faecalis; experiment: Preservation test with periodic inoculation, bacteria assessment; type: cell-based; details: for 60 d 40° C., bact. assess., 4th inoculation: sample stored 60 d at 40° C.; for Start sample measurement, bact. assess., 4th inoculation: freshly formulated
Method in brief: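 Polymer samples (25 g) containing preservative were inoculated weekly, four times, with 10^9/ml bacterial or yeast mixtures (0.5 ml). Weekly streaks on agar were scored semiquantitatively (−− to ++) after 3 days at 25 °C, on fresh samples and on samples stored 60 days at 40 °C.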

[4] = Physical stability; visual assessment (color, turbidity, phase separation); type: physicochemical; parameters: key: ++: no discernible change with respect to color, turbidity or phase separation; +: marginal change in color number, somewhat increased Tyndall effect but no turbidity; 0: easily discernible increase in color number and moderate turbidity−no phase separation; −: turbidity and change in color number readily discernible by visual assessment; −−: strong color change with strong turbidity and incipient phase separation
Method in brief: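 Samples were inspected visually for color, turbidity and phase separation and scored on a five-step scale. Scores run from ++ (no discernible change) to −− (strong color change, strong turbidity, incipient phase separation).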

[5] = Polymer P5 (HP56) with stabilizer

## CCCCCCCCn1sccc1=O [OIT, octylisothiazolinone]
[1]; Polymer P1 with stabilizer
  Iodine color number, 60 d 40° C.: 5.9
  Iodine color number, start: 2.8
[1]; Polymer P2 with stabilizer
  Iodine color number, 60 d 40° C.: 8.0
  Iodine color number, start: 3.0
[1]; Polymer P3 with stabilizer
  Iodine color number, 60 d 40° C.: 9.2
  Iodine color number, start: 3.3
[1]; Polymer P4 with stabilizer
  Iodine color number, 60 d 40° C.: 9.7
  Iodine color number, start: 3.3
[1]; [5]
  Iodine color number, 60 d 40° C.: 9.7
  Iodine color number, start: 3.4
[1]; Polymer P6 with stabilizer
  Iodine color number, 60 d 40° C.: 9.7
  Iodine color number, start: 3.4
[1]; Polymer P7 with stabilizer
  Iodine color number, 60 d 40° C.: 9.7
  Iodine color number, start: 3.4
[1]; Polymer P8 with stabilizer
  Iodine color number, 60 d 40° C.: 10.0
  Iodine color number, start: 3.3
[1]; Polymer P9 with stabilizer
  Iodine color number, 60 d 40° C.: 15.5
  Iodine color number, start: 4.0
[2]; in Polymer P1
  active-substance concentration, 0 d, RT: 250 ppm
  active-substance concentration, 14 d, 40° C.: 142 ppm
  active-substance concentration, 28 d, 40° C.: 89 ppm
  active-substance concentration, 60 d 40° C.: 72 ppm
[2]; in Polymer P2
  active-substance concentration, 0 d, RT: 250 ppm
  active-substance concentration, 14 d, 40° C.: 170 ppm
  active-substance concentration, 28 d, 40° C.: 101 ppm
  active-substance concentration, 60 d 40° C.: 84 ppm
[2]; in Polymer P3
  active-substance concentration, 0 d, RT: 250 ppm
  active-substance concentration, 14 d, 40° C.: 163 ppm
  active-substance concentration, 28 d, 40° C.: 121 ppm
  active-substance concentration, 60 d 40° C.: 96 ppm
[2]; in Polymer P4
  active-substance concentration, 0 d, RT: 250 ppm
  active-substance concentration, 14 d, 40° C.: 165 ppm
  active-substance concentration, 28 d, 40° C.: 114 ppm
  active-substance concentration, 60 d 40° C.: 90 ppm
[2]; in Polymer P5 (HP56)
  active-substance concentration, 0 d, RT: 250 ppm
  active-substance concentration, 14 d, 40° C.: 142 ppm
  active-substance concentration, 28 d, 40° C.: 89 ppm
  active-substance concentration, 60 d 40° C.: 72 ppm
[2]; in Polymer P6
  active-substance concentration, 0 d, RT: 250 ppm
  active-substance concentration, 14 d, 40° C.: 135 ppm
  active-substance concentration, 28 d, 40° C.: 88 ppm
  active-substance concentration, 60 d 40° C.: 68 ppm
[2]; in Polymer P7
  active-substance concentration, 0 d, RT: 250 ppm
  active-substance concentration, 14 d, 40° C.: 139 ppm
  active-substance concentration, 28 d, 40° C.: 92 ppm
  active-substance concentration, 60 d 40° C.: 73 ppm
[2]; in Polymer P8
  active-substance concentration, 0 d, RT: 250 ppm
  active-substance concentration, 14 d, 40° C.: 142 ppm
  active-substance concentration, 28 d, 40° C.: 89 ppm
  active-substance concentration, 60 d 40° C.: 72 ppm
[2]; in Polymer P9
  active-substance concentration, 0 d, RT: 250 ppm
  active-substance concentration, 14 d, 40° C.: 128 ppm
  active-substance concentration, 28 d, 40° C.: 76 ppm
  active-substance concentration, 60 d 40° C.: 62 ppm
[3]; Polymer P1
  60 d 40° C., bact. assess., 4th inoculation: +
[3]; Polymer P2
  60 d 40° C., bact. assess., 4th inoculation: +
[3]; Polymer P3
  60 d 40° C., bact. assess., 4th inoculation: ++
[3]; Polymer P4
  Start sample measurement, bact. assess., 4th inoculation: − (slight growth, max. 100 colonies)
  60 d 40° C., bact. assess., 4th inoculation: ++
[3]; Polymer P5 (HP56)
  Start sample measurement, bact. assess., 4th inoculation: − (slight growth, max. 100 colonies)
  60 d 40° C., bact. assess., 4th inoculation: ++
[3]; Polymer P6
  Start sample measurement, bact. assess., 4th inoculation: − (slight growth, max. 100 colonies)
  60 d 40° C., bact. assess., 4th inoculation: ++
[3]; Polymer P7
  Start sample measurement, bact. assess., 4th inoculation: − (slight growth, max. 100 colonies)
  60 d 40° C., bact. assess., 4th inoculation: ++
[3]; Polymer P8
  60 d 40° C., bact. assess., 4th inoculation: +
[3]; Polymer P9
  60 d 40° C., bact. assess., 4th inoculation: ++
[4]; Polymer P1 with stabilizer
  Physical stability, 60 d 40° C.*: −−
[4]; Polymer P2 with stabilizer
  Physical stability, 60 d 40° C.*: −−
[4]; Polymer P3 with stabilizer
  Physical stability, 60 d 40° C.*: −−
[4]; Polymer P4 with stabilizer
  Physical stability, 60 d 40° C.*: −−
[4]; [5]
  Physical stability, 60 d 40° C.*: −−
[4]; Polymer P6 with stabilizer
  Physical stability, 60 d 40° C.*: −−
[4]; Polymer P7 with stabilizer
  Physical stability, 60 d 40° C.*: −−
[4]; Polymer P8 with stabilizer
  Physical stability, 60 d 40° C.*: −−
[4]; Polymer P9 with stabilizer
  Physical stability, 60 d 40° C.*: −−
